Data published in patent publication US7026281B1, “Antagonistic analogs of GH-RH inhibiting IGF-I and -II” (The Administrators of the Tulane Educational Fund, priority 1998, dated 2006).
Marks after values point to notes of the source that are not given here. Square brackets hold non-standard residues; d marks the D form. Peptide text beside a SMILES is read from it. * marks the point of attachment. Phe(4-Cl) = N[C@@H](Cc1ccc(Cl)cc1)C(=O)O; hArg = N=C(N)NCCCC[C@H](N)C(=O)O; Nle = CCCC[C@H](N)C(=O)O; Abu = CC[C@H](N)C(=O)O; PhAc = O=C(Cc1ccccc1)*

Columns and labels:
[1] = system: GH release stimulated by hGH-RH(1–29)NH2; assay: In vivo inhibition of serum GH response in rats; design: species or system rat
In short: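 Male Sprague-Dawley rats (200–250 g) under Nembutal received antagonist at 80 μg/kg i.v., then GH-RH(1–29)NH2 at 3 μg/kg after 5, 15, 30 or 60 min; controls received vehicle (5.5% mannitol). GH was measured by RIA before antagonist and 5 min after GH-RH, and inhibition was calculated as […].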

[2] = system: HT-29 human colon cancers; assay: HT-29 human colon cancer xenografts in nude mice; assay type: in vivo; details: 20 μg daily sc., 6 weeks; for Final tumor volume (mm^3) / Tumor weight: nude mice
Method: HT-29 human colon cancers were transplanted sc. into male nude mice. 19 days after transplantation, the mice were divided into groups of 10 animals each, and the treatment was started. The mice received single daily injections of various GH-RH antagonists sc. at 20 μg dose per day for 6 weeks. Tumors were measured regularly, and tumor volume was calculated. The mice were sacrificed at the end of experiment and tumor weights were measured.

[3] = system: hGH-RH(1–29)NH2 induced GH release; assay: Inhibition of GH release in superfused rat pituitary system; assay type: cell-based; details: antagonist 30 nM
In short: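 Superfused rat pituitary cells preincubated 9 min with peptide, then challenged for 3 min with 1 nM hGH-RH(1–29)NH2 at 0, 30, 60, 90 and 120 min. Rat GH measured by double-antibody RIA; net integral GH responses expressed as percent of the original 1 nM GH-RH-induced response.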

[4] = target: T1, rat pituitary GH-RH receptors (Rattus norvegicus, UniProt Q02644); assay: GH-RH radioreceptor binding assay, rat anterior pituitary membrane homogenates
T1 construct: from tissue; host or cells: anterior pituitary of male Sprague-Dawley rats, crude membrane homogenates
T1 sequence (Q02644 23-464): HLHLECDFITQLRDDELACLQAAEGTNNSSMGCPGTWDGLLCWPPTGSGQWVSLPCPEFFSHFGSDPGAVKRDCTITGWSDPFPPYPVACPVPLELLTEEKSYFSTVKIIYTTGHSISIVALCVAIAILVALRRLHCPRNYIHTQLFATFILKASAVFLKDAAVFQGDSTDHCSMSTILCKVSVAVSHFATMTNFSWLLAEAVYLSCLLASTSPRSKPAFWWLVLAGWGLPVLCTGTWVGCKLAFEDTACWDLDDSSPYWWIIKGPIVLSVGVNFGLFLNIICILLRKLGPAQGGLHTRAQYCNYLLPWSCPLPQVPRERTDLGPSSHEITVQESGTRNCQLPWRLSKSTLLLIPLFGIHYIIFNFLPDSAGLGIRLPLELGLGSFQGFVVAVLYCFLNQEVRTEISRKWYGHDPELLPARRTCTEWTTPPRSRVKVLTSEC
In short: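 Antagonists competed with [His^1,^125I-Tyr^10,Nle^27]hGH-RH(1–32)NH2 for binding to crude anterior pituitary membranes from male Sprague-Dawley rats, with γ-counting of the pellet. Ki came from Munson–Rodbard analysis. Relative affinity is the Ki of the test antagonist divided by the Ki of standard [Ac-Tyr^1,D-Arg^2]hGH-RH(1–29)NH2.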

[5] = system: mammary (MDA-MB-468, ZR-75-1), prostatic (PC-3 and DU-145), and pancreatic (MiaPaCa-2, SW-1990 and Capan-2) cancer cell lines; details: MDA-MB-468, ZR-75-1, PC-3, DU-145, MiaPaCa-2, SW-1990, Capan-2; cited from earlier work
[6] = system: IGF-II; details: same cancer cell lines in vitro; cited from earlier work
[7] = system: PC-3 human prostate cancer xenografts; assay: PC-3 human prostate cancer xenografts in nude mice; assay type: in vivo; details: 20 μg daily s.c., 21 days
Method: Male nude mice were implanted s.c. with 3 mm^3 pieces of PC-3 human hormone-independent prostate cancer tissue into both flanks. When tumors reached a volume of approx. 40–50 mm^3 the mice were divided into 3 experimental groups. The first and second groups were treated with peptides Peptide 3 and MZ-5-156, respectively, in single daily s.c. injections of 20 μg for 21 days, while the third group served as control. Tumor volumes were measured at weekly intervals, tumor weights were measured at the end of experiment.

[8] = system: MDA-MB-468 human breast cancer xenografts; assay: MDA-MB-468 human breast cancer xenografts in nude mice; assay type: in vivo; details: 20 μg daily s.c., 5 weeks
Method: Nude mice bearing MDA-MB-468 hormone-independent human breast cancer xenografts were divided into groups of 10 animals each. The treated groups received single daily s.c. injections of 20 μg of GH-RH antagonists. One group was treated with Peptide 1, a second group was treated with MZ-5-156 for comparison. The control group was injected with the vehicle solvent. The treatment was continued for 5 weeks. Tumors were measured once a week and tumor volume was calculated. The mice were sacrificed at the end of experiment and tumor weights were measured.

[9] = system: Estrogen independent MXT mouse mammary tumors; assay: MXT mouse mammary tumors in BDF mice; assay type: in vivo; details: 20 μg per day
Method: Estrogen independent MXT tumors were transplanted sc. to female BDF mice. One day after transplantation, the mice were divided into groups of 10 animals each, and the treatment was started. The mice in groups 1, 2, 3, and 4 received single injections daily of various GH-RH antagonists sc. at 20 μg dose per day for 18 days. In groups 5 and 6, the peptides were administered by Alzet osmotic pumps releasing a daily amount of 20 μg peptide. Tumors were measured regularly, and tumor volume was calculated. The mice were sacrificed on day 18 and tumor weights were measured.

CCCC[C@H](NC(=O)[C@@H](NC(=O)[C@H](CC(=O)O)NC(=O)[C@H](CCC(N)=O)NC(=O)[C@H](CC(C)C)NC(=O)[C@H](CC(C)C)NC(=O)[C@H](CCCCN)NC(=O)[C@H](CCCNC(=N)N)NC(=O)[C@H](C)NC(=O)[C@H](CO)NC(=O)[C@H](CC(C)C)NC(=O)[C@H](CCC(N)=O)NC(=O)[C@H](CC)NC(=O)[C@H](CC(C)C)NC(=O)[C@@H](NC(=O)[C@H](CCCCN)NC(=O)[C@H](CCCNC(=N)N)NC(=O)[C@H](Cc1ccc(O)cc1)NC(=O)[C@H](CO)NC(=O)[C@H](CC(N)=O)NC(=O)[C@@H](NC(=O)[C@H](Cc1ccc(Cl)cc1)NC(=O)[C@@H](NC(=O)[C@H](C)NC(=O)[C@H](CC(=O)O)NC(=O)[C@@H](CCCNC(=N)N)NC(=O)[C@H](Cc1ccc(O)cc1)NC(=O)Cc1ccccc1)[C@@H](C)CC)[C@@H](C)O)C(C)C)[C@@H](C)CC)C(=O)N[C@H](CCCNC(=N)N)C(=O)N[C@@H](CCCCNC(=N)N)C(N)=O [Peptide 11, [PhAc^0, D-Arg^2, Phe(pCl)^6, Abu^15, Nle^27, D-Arg^28, Har^29]hGH-RH(1–29)NH2] (PhAc-Y[dR]DAI[Phe(4-Cl)]TNSYRKVL[Abu]QLSARKLLQDI[Nle][dR][hArg]-NH2)
Inhibition of the GH release stimulated by hGH-RH(1–29)NH2 (in words) ([1]; 80 μg/kg i.v., rats): strong and long-lasting inhibition
Relative inhibition % of GH response ([1]; antagonist 80 μg/kg i.v. 5 min before GH-RH): 84%
Relative inhibition % of GH response ([1]; antagonist 80 μg/kg i.v. 15 min before GH-RH): 50%
GH response mean ± S.E.M. ([1]; antagonist 80 μg/kg i.v. 15 min before GH-RH 3 μg/kg): 13.64 ± 1.41
Relative inhibition % of GH response ([1]; antagonist 80 μg/kg i.v. 30 min before GH-RH): 40%
GH response mean ± S.E.M. ([1]; antagonist 80 μg/kg i.v. 30 min before GH-RH 3 μg/kg): 16.04 ± 4.36
Relative inhibition % of GH response ([1]; antagonist 80 μg/kg i.v. 60 min before GH-RH): 38%
GH response mean ± S.E.M. ([1]; antagonist 80 μg/kg i.v. 60 min before GH-RH 3 μg/kg): 16.61 ± 6.02
GH response mean ± S.E.M. ([1]; rGH=GHblood1/GHblood0, antagonist 80 μg/kg i.v. 5 min before GH-RH 3 μg/kg): 5.15 ± 1.11
Inhibitory effect on HT-29 human colon cancers (in words) [2]: only little nonsignificant effect
Final tumor volume (mm^3) [2]: 1663 ± 610 mm^3
Tumor weight [2]: 1849 ± 681 mg
Inhibition of GH release (%) 30 min ([3]; 1 nM hGH-RH(1–29)NH2 30 min later): 89%
Inhibition of GH release (%) 60 min ([3]; 1 nM hGH-RH(1–29)NH2 60 min later): 80%
Inhibition of GH release (%) 90 min ([3]; 1 nM hGH-RH(1–29)NH2 90 min later): 56%
Inhibition of GH release (%) 120 min ([3]; 1 nM hGH-RH(1–29)NH2 120 min later): 42%
Inhibition of GH release (%) 0 min ([3]; 1 nM hGH-RH(1–29)NH2 at 0 min): 96%
Ki ([4]; competition with [His1,125I-Tyr10,Nle27]hGH-RH(1–32)NH2): 0.071 nM
R.A. (relative affinity compared to Standard antagonist) ([4]; ratio of Ki values): 41

[Ibu^0, Tyr^1, D-Arg^2, Abu^15, Nle^27]hGH-RH(1–28) Agm [MZ-4-71, reference compound]
Rate of proliferation of cancer cell lines in vitro [5]: significantly inhibited
Inhibitory effect on HT-29 human colon cancers (in words) [2]: only little nonsignificant effect
Final tumor volume (mm^3) [2]: 1953 ± 400 mm^3
Tumor weight [2]: 2189 ± 458 mg
Expression of IGF-II mRNA in the cells and concentration of IGF-II secreted into the culture medium [6]: reduced

[PhAc^0, D-Arg^2, Abu^15, Nle^27]hGH-RH(1–28) Agm [MZ-5-156, reference compound]
Rate of proliferation of cancer cell lines in vitro [5]: significantly inhibited
Inhibitory effect on HT-29 human colon cancers (in words) [2]: equally strong inhibitory effect
Final tumor volume (mm^3) [2]: 908 ± 195* mm^3
Tumor weight [2]: 1012 ± 174 mg
Inhibition in tumor volume [7]: 52%
Inhibition in tumor weight [7]: 46%
Final tumor volume (mm^3) ([7]; nude mice): 148.9 ± 41 mm^3
Tumor weight ([7]; nude mice): 104.3 ± 27.2 mg
Expression of IGF-II mRNA in the cells and concentration of IGF-II secreted into the culture medium [6]: reduced
Final tumor volume (mm^3) ([8]; nude mice): 104.4 ± 32.2** mm^3
Tumor weight ([8]; nude mice): 77.7 ± 31.7 mg
Number of regressed tumors ([8]; groups of 10): 3
Inhibitory effect on MXT mouse mammary cancers (in words) ([9]; 18 days): significant inhibition of tumor growth
Tumor volume (mm^3) On day 14 ([9]; single daily sc. injections): 2717 ± 773 mm^3
Tumor volume (mm^3) On day 18 ([9]; single daily sc. injections): 5368 ± 408* mm^3
Tumor weights ([9]; single daily sc. injections, day 18): 4885 ± 480 mg
Number of surviving mice ([9]; single daily sc. injections, groups of 10): 4
